Consider seven compounds from doi:10.1101/2024.08.19.608619, “Discovery of potent SARS-CoV-2 nsp3 macrodomain inhibitors uncovers lack of translation to cellular antiviral response” (bioRxiv, 2024).

The test system of data set [1] is SARS-CoV-2, isolate USA-WA1/2020. The data set can be described thus: microbe, parasite or virus in culture. The data set is classed as cell-based. Particulars: HeLa-ACE2 SARS-CoV-2 antiviral effect without P-gp inhibitor; for perc_max_measured: maximum measured response of dose series; for perc_min_measured: minimum measured response of dose series; for EC50: read-out: ec50; for EC90: read-out: ec90.

Data set [2] is described as follows: Hepatic microsomal stability, HLM. The format is in vitro ADME, human. Particulars: In vitro human liver microsomal stability; for perc_remaining_no_cofactor: no cofactor. (In general: Microsomes from liver hold many membrane-bound enzymes, among them those of drug oxidation.)
Data set [3] in a line: Hepatic microsomal stability, MLM. The format is in vitro ADME. Particulars: In vitro mouse liver microsomal stability; for perc_remaining_no_cofactor: no cofactor.
The subject of a further data set is HeLa-ACE2 cells. Particulars: for perc_max_measured: highest measured response of the dose series; for perc_min_measured: lowest measured response of the dose series.
The nature of the next data set: LogD. As to conditions: pH 7.4; In vitro LogD.
The next data set is described as follows: in vitro. As to conditions: human, hela-ace2 cells, 50.0.
Data set [4] in a line: In vitro kinetic solubility. Particulars: In vitro kinetic solubility, ph 7.4.
Data set [5] is described as follows: Permeability Papp (AB) MDR1/MDCKII. As to conditions: for papp_a_to_b_mean: A to B; for perc_recovery_a_to_b_mean / perc_recovery_a_to_b_inhibitor_mean: recovery A to B; for perc_recovery_a_to_b_inhibitor_mean / perc_recovery_b_to_a_inhibitor_mean: MDR1-MDCKII.
Where [6] appears, read: In vitro MDR1-MDCKII permeability, no inhibitor.
Where [7] appears, read: protocol HeLa-ACE2 cytotoxicity.
Where [8] appears, read: In vitro MDR1-MDCKII permeability, mean.

For orientation: EC50 means the concentration that produces a half-maximal response. The term EC90 denotes the point of the concentration-response curve where the effect stands at 90%. The CC50 is the concentration at which the toxic effect on the cells reaches its halfway point.

Values after ≈ are worked out from the molar mass of the structure shown. Values joined by “and” are separate entries in the source; they are usually repeats but may differ in a detail not shown here. Equal values may be shown once. Read-outs that look alike come from different tables or passages of the source.

Consider `CC(C)[C@@H](Nc1ncnc2[nH]c(-c3cncc(S(C)(=O)=O)c3)cc12)c1ccc2c(c1)S(=O)(=O)CCC2` [ASAP-0012320], for which, in data set [1], the perc_max_measured was 119.816%, the perc_min_measured is given as 96.629%, the EC50 was > 20 µM and the EC90 is > 20 µM. Moreover, in data set [2], the clint was 635.0 µL/min/mg, the perc_remaining came out at 1.0%, the t_half came out at 2.6 min and the perc_remaining_no_cofactor is recorded as 104.0%. In data set [3], the clint is 272.0 µL/min/mg, the perc_remaining is 1.0%, the t_half was 6.1 min and the perc_remaining_no_cofactor is given as 112.0%. For the same compound, in the data set on HeLa-ACE2 cells (HeLa-ACE2 cytotoxicity), the cytotoxic concentration (CC50) was > 20 µM, the cc10 is > 20.0 µM, the perc_max_measured is listed as 98.548% and the perc_min_measured is reported as 93.918%. In addition, the logd in “LogD” worked out at 3.1. Also, in “in vitro”, the CC50 at 24 h was > 20 µM. The same compound yielded a solubility_mean in data set [4] of 31 µM (≈ 16.3 µg/mL). Besides, in data set [5] (setting [6]), the papp_a_to_b_mean stood at 0.491 ×10⁻⁶ cm/s and the perc_recovery_a_to_b_mean was 66.6%.
On to `CC(C)[C@@H](Nc1ncnc2[nH]ccc12)c1ccc2c(c1)S(=O)(=O)CCC2` (single isomer, unassigned) [ASAP-0008676], for which, in data set [1], the perc_max_measured is on record as 117.108%, the perc_min_measured was 66.698%, the EC50 was > 20 µM and the 90% effect concentration (EC90) was > 20 µM. Also, in data set [2], the clint worked out at 21.0 µL/min/mg, the perc_remaining came to 69.0%, the t_half is listed as 78.6 min and the perc_remaining_no_cofactor is recorded as 99.0%. In addition, in data set [3], the clint was 55.0 µL/min/mg, the perc_remaining was found to be 41.0%, the t_half was determined as 30.4 min and the perc_remaining_no_cofactor amounted to 117.0%. In the data set on HeLa-ACE2 cells (HeLa-ACE2 cytotoxicity), the CC50 was > 20 µM, the cc10 is > 20.0 µM, the perc_max_measured was 101.14% and the perc_min_measured is on record as 87.391%. This compound also showed a logd in “LogD” of 2.5. Also, the half-maximal cytotoxic concentration (CC50) at 24 h in “in vitro” is > 20 µM. Moreover, the solubility_mean in data set [4] amounted to 386 µM (≈ 143 µg/mL). Further, the papp_b_to_a_mean in data set [5] (In vitro MDR1-MDCKII permeability, B to A, no inhibitor) was 7.1 ×10⁻⁶ cm/s and 4.9 ×10⁻⁶ cm/s. In data set [5] (setting [6]), the efflux_ratio was 47.7 and 54.4; the perc_recovery_a_to_b_mean is 75.4% and 74.2% and 91.3%. Besides, the perc_recovery_b_to_a_mean in data set [5] (In vitro MDR1-MDCKII permeability, recovery B to A, no inhibitor) was 80.0% and 74.5%. In addition, the perc_recovery_a_to_b_inhibitor_mean in data set [5] (with inhibitor Cyclosporin A) was found to be 72.2%. In data set [5] (with inhibitor Verapamil), this compound had a perc_recovery_a_to_b_inhibitor_mean of 82.4%. The compound also yielded a perc_recovery_b_to_a_inhibitor_mean in data set [5] (recovery B to A, with inhibitor Cyclosporin A) of 63.3%. In data set [5] (recovery B to A, with inhibitor Verapamil), the perc_recovery_b_to_a_inhibitor_mean was determined as 89.1%.
Take `CC(C)[C@@H](Nc1ncnc2[nH]c(-c3ccc4cncn4c3)cc12)c1ccc2c(c1)S(=O)(=O)CCC2` [ASAP-0011215]: in data set [1], the perc_max_measured amounted to 92.609%, the perc_min_measured turned out to be 28.375%, the EC50 was determined as 7.12 µM and the EC90 was > 20 µM. In addition, in data set [2], the clint worked out at 210.0 µL/min/mg, the perc_remaining stood at 4.0%, the t_half is 8.0 min and the perc_remaining_no_cofactor is given as 97.0%. Also, in data set [3], the clint came to 170.0 µL/min/mg, the perc_remaining came to 6.0%, the t_half amounted to 9.8 min and the perc_remaining_no_cofactor amounted to 87.0%. In addition, in the data set on HeLa-ACE2 cells (HeLa-ACE2 cytotoxicity), the CC50 was > 20 µM, the cc10 was > 20.0 µM, the perc_max_measured was determined as 108.268% and the perc_min_measured came to 81.968%. In “LogD”, the logd came to 4.0. For the same compound, the 50% cytotoxic concentration (CC50) at 24 h in “in vitro” was > 20 µM. The compound further displayed a solubility_mean in data set [4] of 14 µM (≈ 6.81 µg/mL). For the same compound, in data set [5] (setting [6]), the papp_a_to_b_mean was 0.56 ×10⁻⁶ cm/s and the perc_recovery_a_to_b_mean stood at 70.8%.
In the case of `CC(C)[C@H](Nc1ncnc2[nH]c(-c3cnn(C)c3)cc12)c1ccc2c(c1)S(=O)(=O)CCC2` (single isomer, unassigned) [ASAP-0012327], in data set [1], the perc_max_measured was 111.115%, the perc_min_measured is recorded as 52.798%, the EC50 is > 20 µM and the EC90 was > 20 µM. Further, in data set [2], the clint was determined as 169.0 µL/min/mg, the perc_remaining is 7.0%, the t_half came to 9.9 min and the perc_remaining_no_cofactor is on record as 95.0%. Also, in data set [3], the clint stood at 255.0 µL/min/mg, the perc_remaining was 1.0%, the t_half amounted to 6.5 min and the perc_remaining_no_cofactor is reported as 98.0%. Moreover, in the data set with HeLa-ACE2 cells (HeLa-ACE2 cytotoxicity), the CC50 was > 20 µM, the cc10 was > 20.0 µM, the perc_max_measured is given as 100.334% and the perc_min_measured amounted to 94.258%. In the data set “LogD”, this compound returned a logd of 2.9. The CC50 at 24 h in “in vitro” is > 20 µM. This compound also displayed a solubility_mean in data set [4] of 111 µM (≈ 50 µg/mL). Also, in data set [5] (setting [6]), the papp_a_to_b_mean was 1.18 ×10⁻⁶ cm/s and the perc_recovery_a_to_b_mean amounted to 65.0%.
Turning to `CC(C)[C@@H](Nc1ncnc2[nH]c(-c3cnn(CC(N)=O)c3)cc12)c1ccc2c(c1)S(=O)(=O)CCC2` [ASAP-0011432], in data set [1], the perc_max_measured stood at 127.59%, the perc_min_measured was found to be 107.301%, the concentration giving a half-maximal response (EC50) is > 20 µM and the EC90 was > 20 µM. In data set [2], the clint is 115.0 µL/min/mg, the perc_remaining turned out to be 15.0%, the t_half was determined as 14.5 min and the perc_remaining_no_cofactor was found to be 103.0%. In addition, in data set [3], the clint is 96.0 µL/min/mg, the perc_remaining was found to be 20.0%, the t_half is on record as 17.4 min and the perc_remaining_no_cofactor is listed as 111.0%. For the same compound, in the data set with HeLa-ACE2 cells (setting [7]), the CC50 was > 20 µM, the cc10 is > 20.0 µM, the perc_max_measured stood at 97.628% and the perc_min_measured stood at 83.24%. The compound also had a logd in the data set “LogD” of 2.0. Also, the half-maximal cytotoxic concentration (CC50) at 24 h in the data set “in vitro” is > 20 µM. The solubility_mean in data set [4] was determined as 335 µM (≈ 165 µg/mL). Besides, in data set [5] (setting [8]), the papp_a_to_b_mean came to 0.719 ×10⁻⁶ cm/s and the perc_recovery_a_to_b_mean came out at 76.6%.
Regarding `CC(C)[C@@H](Nc1ncnc2[nH]c(-c3cnn(C)c3C#N)cc12)c1ccc2c(n1)NC(=O)CO2` (single isomer, unassigned) [ASAP-0011180], in data set [1], the perc_max_measured was 122.922%, the perc_min_measured was 8.802%, the 50% effective concentration (EC50) is 2.46 µM and the EC90 stood at 5.57 µM. In data set [2], the clint was 51.0 µL/min/mg, the perc_remaining was determined as 43.0%, the t_half turned out to be 32.6 min and the perc_remaining_no_cofactor was 98.0%. In addition, in data set [3], the clint stood at 189.0 µL/min/mg, the perc_remaining was determined as 5.0%, the t_half is on record as 8.8 min and the perc_remaining_no_cofactor is listed as 92.0%. Further, in the data set with HeLa-ACE2 cells (HeLa-ACE2 cytotoxicity), the CC50 is > 20 µM, the cc10 was > 20.0 µM, the perc_max_measured was determined as 104.887% and the perc_min_measured is recorded as 81.763%. The same compound gave a logd in “LogD” of 3.7. The CC50 at 24 h in the data set “in vitro” is > 20 µM. The compound further showed a solubility_mean in data set [4] of 28 µM (≈ 12.4 µg/mL). In data set [5] (setting [8]), this compound showed a papp_a_to_b_mean of 9.64 ×10⁻⁶ cm/s and a perc_recovery_a_to_b_mean of 84.8%.
Consider `CC(C)[C@H](Nc1ncnc2[nH]c(-c3cnn(C)c3C#N)cc12)c1ccc2c(c1)NC(=O)CO2` (single isomer, unassigned) [ASAP-0013255], for which, in data set [1], the perc_max_measured came to 72.17%, the perc_min_measured is given as 6.652%, the half-maximal effective concentration (EC50) was 1.33 µM and the 90% effect concentration (EC90) was > 20 µM. In data set [2], the clint was determined as 115.0 µL/min/mg, the perc_remaining is recorded as 16.0%, the t_half was found to be 14.6 min and the perc_remaining_no_cofactor came to 101.0%. In addition, in data set [3], the clint is 81.0 µL/min/mg, the perc_remaining is 27.0%, the t_half worked out at 20.7 min and the perc_remaining_no_cofactor is listed as 96.0%. Also, in the data set with HeLa-ACE2 cells (HeLa-ACE2 cytotoxicity), the half-maximal cytotoxic concentration (CC50) was > 20 µM, the cc10 is > 20.0 µM, the perc_max_measured is listed as 92.424% and the perc_min_measured worked out at 38.485%. In “LogD”, this compound had a logd of 4.4. Besides, the CC50 at 24 h in “in vitro” was > 20 µM. In data set [4], this compound had a solubility_mean of 26 µM (≈ 11.5 µg/mL). In data set [5] (setting [8]), this compound came in with a papp_a_to_b_mean of 1.22 ×10⁻⁶ cm/s and a perc_recovery_a_to_b_mean of 51.1%.
